Reference: article PMC4899218 (Molecular microbiology, 2016)

How the values were obtained:
EmoA = EmoA (EDTA-degrading bacterium BNC1, UniProt Q9F9T3); assay: ITC; type: binding
[1] = target: EDTA monooxygenase (EmoA) from Chelativorans sp. BNC1 (Chelativorans sp. BNC1); assay: SEC-MALS

| Kd (EmoA) [µM] | stoichiometry N [1] | Compound |
| --- | --- | --- |
| 0.33 | – | Cc1cc2nc3c(=O)[nH]c(=O)nc-3n(C[C@H](O)[C@H](O)[C@H](O)COP(=O)(O)O)c2cc1C [FMN] |
| – | 2 | EDTA monooxygenase (EmoA) from Chelativorans sp. BNC1 (enzyme) |
